Values of other authors as cited in patent publication US11696883B2, “Compositions for reducing hair loss and/or increasing hair regrowth” (Triple Hair Inc., priority 2014, dated 2023).
Read-outs that look alike come from different tables or passages of the source.

What was measured:
[1] = latanoprost in ophthalmology use
hair loss = conditions: topical
[2] = tested on: prostaglandin endoperoxide synthase-1 (PGHS-1); conditions: Michelet et al. 1997

solubility (in 0.1N HCl and 0.1N NaOH) | solubility (in chloroform, DMSO, ethanol, methanol, n-propanol) | solubility (in propylene glycol, polyethylene glycol 400) | solubility (in water) | solubility (in acetone, ethanol, ethyl acetate, isopropanol, methanol and octanol) | solubility (in acetonitrile) | SMILES | other adverse effects [1] | side effects [1] | effective in promoting regrowth of the hair (hair loss) | activation of purified PGHS-1 [2]
very slightly soluble | freely soluble | sparingly soluble | not soluble | – | – | CC(C)(C)NC(=O)[C@H]1CC[C@H]2[C@@H]3CC[C@H]4NC(=O)C=C[C@]4(C)[C@H]3CC[C@]12C [Finasteride, (5α,17β)-N-(1,1-Dimethylethyl)-3-oxo-4-azaandrost-1-ene-17-carboxamide] | – | – | – | –
– | – | – | practically insoluble | freely soluble | very soluble | CC(C)OC(=O)CCC/C=C\C[C@@H]1[C@@H](CC[C@@H](O)CCc2ccccc2)[C@H](O)C[C@@H]1O [Latanoprost] | erythema, folliculitis, sensation of burning and erysipelas | augmentation of periocular hirsuteness | – | –
– | – | – | – | – | – | Nc1cc(N2CCCCC2)nc(N)[n+]1[O-] [Minoxidil, 6-(1-pipedidinyl)-2,4-pyrimidinediamine 3-oxide] | – | – | less than 40% | potent activator
